The target in assay [1] is T1, BRSK2 (Homo sapiens, UniProt Q8IWQ3).
T1 sequence (Q8IWQ3 1-736): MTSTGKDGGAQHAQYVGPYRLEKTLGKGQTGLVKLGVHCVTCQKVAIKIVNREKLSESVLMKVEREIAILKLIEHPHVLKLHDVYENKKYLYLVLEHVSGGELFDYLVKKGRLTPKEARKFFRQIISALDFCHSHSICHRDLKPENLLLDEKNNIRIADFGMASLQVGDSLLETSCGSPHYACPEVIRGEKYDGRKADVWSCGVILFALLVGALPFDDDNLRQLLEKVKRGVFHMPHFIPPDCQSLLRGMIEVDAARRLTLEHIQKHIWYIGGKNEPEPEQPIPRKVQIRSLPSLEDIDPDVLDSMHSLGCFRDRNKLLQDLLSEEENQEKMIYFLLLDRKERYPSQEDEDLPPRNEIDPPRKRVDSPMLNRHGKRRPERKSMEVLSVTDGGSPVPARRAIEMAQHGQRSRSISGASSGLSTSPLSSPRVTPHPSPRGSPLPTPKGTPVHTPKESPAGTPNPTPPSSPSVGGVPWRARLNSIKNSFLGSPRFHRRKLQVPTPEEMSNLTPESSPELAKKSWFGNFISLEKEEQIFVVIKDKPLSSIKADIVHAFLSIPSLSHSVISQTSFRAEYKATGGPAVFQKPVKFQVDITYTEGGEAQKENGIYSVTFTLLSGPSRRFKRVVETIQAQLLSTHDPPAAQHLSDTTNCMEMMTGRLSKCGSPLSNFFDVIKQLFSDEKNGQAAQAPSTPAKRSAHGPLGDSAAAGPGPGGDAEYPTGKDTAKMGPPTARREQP
Further details: purchased Eurofins DiscoverX Corporation; method as in earlier work. As to conditions: cited from earlier work.

Assay [2] concerns the target STK33 (Homo sapiens, UniProt Q9BYT3). Details: purchased Eurofins; method as in earlier work. Conditions: cited from earlier work.
Assay [3] deals with PRKAA2. Details: method as in earlier work. Conditions: cited from earlier work.
Assay [4] addresses PIM2 (Homo sapiens, UniProt Q9P1W9). Details: purchased Eurofins DiscoverX Corporation; method as in earlier work. As to conditions: cited from earlier work.
The subject of assay [5] is PDGFRα. Further details: method as in PMID 26501955. As to conditions: cited from earlier work.
Assay [6] concerns GAK. Details: method as in earlier work. Conditions: cited from earlier work.
The test system of assay [7] is 60 cancer cell lines. Details: method as in PMID 26501955. Conditions: cited from earlier work.
The test system of assay [8] is BRSK2-induced phosphorylation. The assay can be described thus: Western blot of BRSK2-induced phosphorylation in HEK293T cells. The format is cell-based. The source says:
With confirmed cellular activity, we next focused on characterizing the pathways mediated by BRSK2 utilizing GW296115. BRSK2 has a similar kinase domain to AMPK and is activated by LKB1-mediated phosphorylation in the active site at T174[24]–[26]. As previously reported, BRSK2 induces phosphorylation of AMPK substrates. Therefore, we asked whether this BRSK2-induced phosphorylation of AMPK substrates is ablated by GW296115. First, we evaluated the effect of GW296115 on AMPK substrate phosphorylation in HEK293T cells overexpressing wild-type or kinase-dead BRSK2 (Fig. 3B). Specifically, we overexpressed two different kinase-dead BRSK2 constructs, K48A and T174A, and treated cells with 2.5 μM of GW296115 for 2 or 6 h. Compared to cells expressing hcRED control, wild-type BRSK2 overexpression induced AMPK substrate phosphorylation, as measured by phospho-S/T AMPK substrate antibody. This change was not observed when overexpressing kinase-dead variants. BRSK2-induced AMPK substrate phosphorylation was ablated with GW269115 treatment at both 2- and 6-h time-points.
Next we evaluated whether specific bona fide AMPK substrates were phosphorylated by BRSK2. Based on the total pS/T AMPK substrate blots, we decided to check known substrates that match the size of the most robust changes due to BRSK2 overexpression. UNC51-like kinase 1 (ULK1) is a 120 kDa kinase that is member of the autophagy initiation complex, and is phosphorylated by AMPK at multiple residues, S317 and S555, among others[27]–[29]. Therefore, we overexpressed wild type BRSK2 in HEK293T cells and measured changes in pULK1 S317 and S555 following treatment with increasing doses of GW296115 for 2 h. BRSK2 overexpression increased phosphorylation of ULK1 at S317, but not S555. […] However, in samples expressing control hcRED, treatment with GW296115 increased pAMPK T172. We also asked if activating phosphorylation of ULK1 leads to increased phosphorylation of downstream components of the autophagy complex. Therefore we evaluated phosphorylation of S351 on P62 (SQSTM1), which is a stress induced autophagy receptor for ubiquitylated cargo[30]. Due to its central role as a signaling hub, P62 accumulation and phosphorylation serves as a sensor for starvation, oxidative stress, and selective autophagy[30]–[32]. […] Moreover, these phosphorylation events were ablated by GW296115 in a dose dependent manner (Fig. 4B,C).
Western blots were carried out as described previously. HEK293T cells were plated in 6-well format and incubated at 37 °C with 5% CO2 for 12 h. Next, cells were transfected with 1.5 ug of plasmid per well for 24 h and treated with GW296115 (in DMSO). Samples were lysed using standard conditions of RIPA (10% glycerol, 50 mM Tris–HCL, 100 mM NaCl, 2 mM EDTA, 0.1% SDS, 1% Nonidet P-40, and 0.2% Sodium Deoxycholate) supplemented with protease inhibitor cocktail (ThermoFisher Scientific, 78429), phosphatase inhibitor cocktail (ThermoFisher Scientific, 78426), NEM (Thermo Scientific, 23030), and Benzonase (Sigma, E1014). Lysis was carried out on ice over the course of 30 min and resultant lysates were centrifuged at 4 °C for 15 min at 21,000×g. Following normalization of protein concentration via BCA (Pierce, 23225), samples were denatured in NuPAGE LDS buffer (Invitrogen, NP0007) plus 1 mM DTT. Blots were imaged with a LiCor Odyssey imager, and then quantified using ImageStudio 5.2. Finally, ANOVA with multiple comparison was performed for quantitated blots using Prism 8.2.4.

The test system of assay [9] is PDGFRβ. Further details: method as in PMID 26501955. As to conditions: cited from earlier work.
Assay [10] relates to cytoplasmic domain of PDGFR. Details: method as in PMID 10048786. Conditions: insect cells; read-out: IC50, autophosphorylation of the cytoplasmic domain of PDGFR in insect cells; cited from earlier work.
[11] abbreviates: HEK293T overexpressing wild type BRSK2, increasing doses for 2 h.

STK33, sequence (Q9BYT3 whole entry): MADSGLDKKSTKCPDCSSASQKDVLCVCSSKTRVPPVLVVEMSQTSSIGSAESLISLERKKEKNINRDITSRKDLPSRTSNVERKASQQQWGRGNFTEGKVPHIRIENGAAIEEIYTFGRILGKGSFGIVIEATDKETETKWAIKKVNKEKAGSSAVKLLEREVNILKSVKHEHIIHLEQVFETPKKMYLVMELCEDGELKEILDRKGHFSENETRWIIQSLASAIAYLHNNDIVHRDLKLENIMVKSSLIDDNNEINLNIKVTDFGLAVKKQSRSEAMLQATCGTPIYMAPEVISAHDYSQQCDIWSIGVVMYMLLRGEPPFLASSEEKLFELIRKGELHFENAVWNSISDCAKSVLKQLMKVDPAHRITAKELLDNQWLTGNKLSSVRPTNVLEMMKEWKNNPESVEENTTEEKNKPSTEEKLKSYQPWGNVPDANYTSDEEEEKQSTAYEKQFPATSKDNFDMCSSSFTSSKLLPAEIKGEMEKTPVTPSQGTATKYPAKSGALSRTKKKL
PIM2, sequence (Q9P1W9 whole entry): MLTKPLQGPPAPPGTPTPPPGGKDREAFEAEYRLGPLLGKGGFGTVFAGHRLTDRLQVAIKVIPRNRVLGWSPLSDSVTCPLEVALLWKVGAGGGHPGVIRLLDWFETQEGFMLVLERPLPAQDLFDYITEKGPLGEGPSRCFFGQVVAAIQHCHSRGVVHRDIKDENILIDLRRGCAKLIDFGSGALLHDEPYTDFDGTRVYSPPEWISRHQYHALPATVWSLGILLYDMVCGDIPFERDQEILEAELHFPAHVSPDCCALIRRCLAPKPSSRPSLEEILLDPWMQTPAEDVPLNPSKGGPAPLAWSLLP

Turning to `COc1ccc2[nH]c3c4[nH]c5ccc(OC)cc5c4c4c(c3c2c1)C(=O)NC4=O` [GW296115], the “Nanosyn % Inhibition at 1 μM” value was 95% in assay [1], 68% in assay [4], 84% in [5] and 85% in assay [9]. The “TSA ΔTm at 10 μM (°C)” value in assay [2] was 9.8 °C; in [3], 10.6 °C; in [6] it was 8.4 °C. Besides, the “effect on cell growth, NCI60 panel” value in [7] is recorded as “does not impact cell growth”. In assay [8] (setting [11]), the “BRSK2-induced phosphorylation of ULK1 S317” value is given as “decreased dose-dependently”. Further, the “pP62 S351 following BRSK2 overexpression” value in [8] (setting [11]) was “dose dependently downregulated”. For the same compound, in [8] (HEK293T overexpressing wild-type BRSK2, 2.5 μM for 2 or 6 h), the “BRSK2-induced AMPK substrate phosphorylation (phospho-S/T AMPK substrate antibody)” value is listed as “ablated”. In addition, the “phosphorylation of BRSK2 at T174” value in assay [8] (HEK293T overexpressing wild-type or K48A BRSK2) is “hyper-phosphorylated”. Further, the “phosphorylation at the LKB1 target site (T172) on AMPK” value in assay [8] (HEK293T, 2.5 μM for 2 or 6 h) was “did not inhibit”. Moreover, in assay [10], the IC50 is 2000 nM.

The values above are taken from article PMC7522982, “PKIS deep dive yields a chemical starting point for dark kinases and a cell active BRSK2 inhibitor” (Scientific Reports, 2020).
